According to US20100035756A1, “TRIAZOLOPHYRIDINE DERIVATIVES AS HERBICIDES” (SYNGENTA LIMITED, priority 2006, published 2010):

Assays:
[1] = tested on: Monocotyledonous and dicotyledonous test plants; experiment: Herbicidal action prior to emergence of the plants (pre-emergence action), Example B1; type: in vivo; details: preemergence application, 250 g/ha, evaluated after 4 weeks, 100%=total damage, 0%=no damage
Method: (§1) Monocotyledonous and dicotyledonous test plants are sown in seed trays in standard soil. Immediately after sowing, the test compounds are applied by spraying in the form of an aqueous suspension (prepared from a wettable powder (Example F3, b) according to WO 97/34485) or in the form of an emulsion (prepared from an emulsifiable concentrate (Example F1, c) according to WO 97/34485) in a concentration of 250 g/ha. The test plants are then grown in a greenhouse under optimum conditions. After a 4-week test period, the test is evaluated (100%=total damage to plant; 0%=no damage to plant; NC not evaluated).

[2] = tested on: Monocotyledonous and dicotyledonous test plants; experiment: Herbicidal action after emergence of the plants (post-emergence herbicidal action), Example B2; type: in vivo; details: postemergent application, 125 g/ha, 2- to 3-leaf stage, evaluated after 2-3 weeks, 100%=total damage
Method: as §1, with “When the test plants are at the 2- to 3-leaf stage,” for “Immediately after sowing,”, “125” for “250”, “grown on” for “grown”, “2- to 3-week” for “4-week”, “plant).” for “plant; NC not evaluated).”

O=C(C1=C(O)C2CCC(C2)C1=O)c1ccc(C(F)(F)F)n2cnnc12 (centres unmarked) [Compound 1.1]
herbicidal damage, ABUTH [1]: 100% | herbicidal damage, BRAPL [1]: 30% | herbicidal damage, DIGSA [1]: 70% | herbicidal damage, ECHCG [1]: 0% | herbicidal damage, SETFA [1]: 30% | herbicidal damage, STEME [1]: 100% | herbicidal damage, VERPE [1]: 60% | herbicidal damage, ABUTH [2]: 80% | herbicidal damage, AMARE [2]: 80% | herbicidal damage, CHEAL [2]: 80% | herbicidal damage, DIGSA [2]: 60% | herbicidal damage, SETFA [2]: 80% | herbicidal damage, SINAR [2]: 90% | herbicidal damage, VERPE [2]: 50% | herbicidal damage, XANST [2]: 80%

O=C(C1=C(O)C2CCC(C2)C1=O)c1ccc(C(F)(F)F)n2nc(Cl)nc12 (centres unmarked) [2.2]
herbicidal damage, ABUTH [1]: 50% | herbicidal damage, AMARE [1]: 70% | herbicidal damage, BRAPL [1]: 50% | herbicidal damage, DIGSA [1]: 50% | herbicidal damage, ECHCG [1]: 70% | herbicidal damage, SETFA [1]: 10% | herbicidal damage, STEME [1]: 0% | herbicidal damage, VERPE [1]: 60% | herbicidal damage, ABUTH [2]: 40% | herbicidal damage, AMARE [2]: 80% | herbicidal damage, CHEAL [2]: 80% | herbicidal damage, DIGSA [2]: 90% | herbicidal damage, SETFA [2]: 80% | herbicidal damage, SINAR [2]: 70% | herbicidal damage, VERPE [2]: 70% | herbicidal damage, XANST [2]: 60%

O=C(C1=C(O)C2CCC(C2)C1=O)c1ccc(C(F)(F)F)n2c(Cl)nnc12 (centres unmarked) [Compound 1.2]
herbicidal damage, ABUTH [1]: 100% | herbicidal damage, AMARE [1]: 100% | herbicidal damage, BRAPL [1]: 100% | herbicidal damage, DIGSA [1]: 100% | herbicidal damage, ECHCG [1]: 100% | herbicidal damage, SETFA [1]: 90% | herbicidal damage, VERPE [1]: 70% | herbicidal damage, ABUTH [2]: 90% | herbicidal damage, AMARE [2]: 80% | herbicidal damage, CHEAL [2]: 80% | herbicidal damage, DIGSA [2]: 90% | herbicidal damage, SETFA [2]: 90% | herbicidal damage, SINAR [2]: 70% | herbicidal damage, VERPE [2]: 70% | herbicidal damage, XANST [2]: 80%

Cc1nc2c(C(=O)C3=C(O)C(C)(C)C(=O)C(C)(C)C3=O)ccc(C(F)(F)F)n2n1 [13.3]
herbicidal damage, ABUTH [1]: 100% | herbicidal damage, AMARE [1]: 90% | herbicidal damage, BRAPL [1]: 80% | herbicidal damage, DIGSA [1]: 80% | herbicidal damage, ECHCG [1]: 30% | herbicidal damage, SETFA [1]: 70% | herbicidal damage, STEME [1]: 100% | herbicidal damage, VERPE [1]: 100% | herbicidal damage, ABUTH [2]: 80% | herbicidal damage, AMARE [2]: 70% | herbicidal damage, CHEAL [2]: 50% | herbicidal damage, DIGSA [2]: 60% | herbicidal damage, SETFA [2]: 70% | herbicidal damage, SINAR [2]: 80% | herbicidal damage, VERPE [2]: 70% | herbicidal damage, XANST [2]: 80%

CC(C)c1nnc2c(C(=O)C3=C(O)CCCC3=O)ccc(C(F)(F)F)n12 [Compound 3.6]
herbicidal damage, ABUTH [1]: 90% | herbicidal damage, AMARE [1]: 70% | herbicidal damage, BRAPL [1]: 60% | herbicidal damage, DIGSA [1]: 90% | herbicidal damage, ECHCG [1]: 90% | herbicidal damage, SETFA [1]: 50% | herbicidal damage, STEME [1]: 20% | herbicidal damage, VERPE [1]: 20% | herbicidal damage, ABUTH [2]: 80% | herbicidal damage, AMARE [2]: 70% | herbicidal damage, CHEAL [2]: 90% | herbicidal damage, DIGSA [2]: 70% | herbicidal damage, SETFA [2]: 70% | herbicidal damage, SINAR [2]: 90% | herbicidal damage, VERPE [2]: 100% | herbicidal damage, XANST [2]: 90%

O=C1CCCC(O)=C1C(=O)c1ccc(C(F)(F)F)n2c(C3CC3)nnc12 [Compound 3.7]
herbicidal damage, ABUTH [1]: 30% | herbicidal damage, AMARE [1]: 30% | herbicidal damage, BRAPL [1]: 30% | herbicidal damage, DIGSA [1]: 30% | herbicidal damage, ECHCG [1]: 10% | herbicidal damage, SETFA [1]: 10% | herbicidal damage, STEME [1]: 20% | herbicidal damage, VERPE [1]: 10% | herbicidal damage, ABUTH [2]: 80% | herbicidal damage, AMARE [2]: 90% | herbicidal damage, CHEAL [2]: 70% | herbicidal damage, DIGSA [2]: 80% | herbicidal damage, SETFA [2]: 80% | herbicidal damage, SINAR [2]: 90% | herbicidal damage, VERPE [2]: 80% | herbicidal damage, XANST [2]: 80%

COCc1nnc2c(C(=O)C3=C(O)C4CCC(C4)C3=O)ccc(C(F)(F)F)n12 (centres unmarked) [Compound 1.16]
herbicidal damage, ABUTH [1]: 100% | herbicidal damage, AMARE [1]: 100% | herbicidal damage, BRAPL [1]: 70% | herbicidal damage, DIGSA [1]: 80% | herbicidal damage, ECHCG [1]: 100% | herbicidal damage, SETFA [1]: 80% | herbicidal damage, STEME [1]: 100% | herbicidal damage, VERPE [1]: 50% | herbicidal damage, ABUTH [2]: 80% | herbicidal damage, AMARE [2]: 90% | herbicidal damage, CHEAL [2]: 80% | herbicidal damage, DIGSA [2]: 70% | herbicidal damage, SETFA [2]: 70% | herbicidal damage, SINAR [2]: 80% | herbicidal damage, VERPE [2]: 80% | herbicidal damage, XANST [2]: 80%

COCc1nnc2c(C(=O)C3=C(O)C(C)(C)C(=O)C(C)(C)C3=O)ccc(C(F)(F)F)n12 [Compound 5.5]
herbicidal damage, AMARE [1]: 60% | herbicidal damage, BRAPL [1]: 20% | herbicidal damage, DIGSA [1]: 10% | herbicidal damage, ECHCG [1]: 60% | herbicidal damage, SETFA [1]: 20% | herbicidal damage, STEME [1]: 70% | herbicidal damage, VERPE [1]: 90% | herbicidal damage, ABUTH [2]: 80% | herbicidal damage, AMARE [2]: 90% | herbicidal damage, CHEAL [2]: 80% | herbicidal damage, DIGSA [2]: 10% | herbicidal damage, SETFA [2]: 50% | herbicidal damage, SINAR [2]: 70% | herbicidal damage, VERPE [2]: 80% | herbicidal damage, XANST [2]: 70%
